Assay [1] deals with T1, 5-hydroxytryptamine receptor 1A (Homo sapiens, UniProt P08908).
T1 sequence (P08908 whole entry): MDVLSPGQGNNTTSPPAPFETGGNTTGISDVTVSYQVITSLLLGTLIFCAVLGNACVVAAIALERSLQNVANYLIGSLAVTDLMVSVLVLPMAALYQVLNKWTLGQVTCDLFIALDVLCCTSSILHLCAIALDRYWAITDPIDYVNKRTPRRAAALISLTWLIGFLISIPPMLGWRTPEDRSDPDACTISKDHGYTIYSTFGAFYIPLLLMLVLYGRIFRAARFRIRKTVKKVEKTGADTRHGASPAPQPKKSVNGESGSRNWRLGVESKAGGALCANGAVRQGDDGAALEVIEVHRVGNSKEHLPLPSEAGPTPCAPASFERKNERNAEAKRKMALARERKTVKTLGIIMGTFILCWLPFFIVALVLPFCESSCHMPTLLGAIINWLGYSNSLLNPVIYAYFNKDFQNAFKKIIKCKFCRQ
As to the kind of experiment: Displacement of [35S]GTP-gamma-S from human recombinant 5HT1A receptor. The assay is classed as functional. For orientation: Displacement assays read how much labelled ligand stays bound in the presence of the test substance.

In assay [2] the target is T2, 5-hydroxytryptamine receptor 1B (Homo sapiens, UniProt P28222). As to the kind of experiment: Inhibitory activity against human recombinant 5HT1B receptor co-expressed with G-protein chimera Gqo5 in HEK293 cells by FLIPR. Format: functional, cell-based.
The target of assay [3] is T3, Adrenergic receptor alpha-1 (Homo sapiens, UniProt P35348+P25100+P35368).
T3 sequence (P35348 whole entry): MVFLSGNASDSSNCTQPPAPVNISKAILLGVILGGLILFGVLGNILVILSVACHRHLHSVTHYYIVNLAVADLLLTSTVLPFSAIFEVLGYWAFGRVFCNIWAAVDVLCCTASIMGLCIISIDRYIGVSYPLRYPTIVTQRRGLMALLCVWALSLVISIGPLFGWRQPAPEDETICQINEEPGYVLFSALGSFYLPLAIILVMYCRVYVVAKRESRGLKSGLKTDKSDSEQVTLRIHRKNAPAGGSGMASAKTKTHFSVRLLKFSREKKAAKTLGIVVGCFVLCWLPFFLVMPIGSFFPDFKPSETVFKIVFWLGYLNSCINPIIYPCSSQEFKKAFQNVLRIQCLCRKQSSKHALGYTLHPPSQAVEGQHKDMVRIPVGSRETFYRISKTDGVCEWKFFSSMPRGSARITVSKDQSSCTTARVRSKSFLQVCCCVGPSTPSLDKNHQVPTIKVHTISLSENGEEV
T3 sequence (P25100 whole entry): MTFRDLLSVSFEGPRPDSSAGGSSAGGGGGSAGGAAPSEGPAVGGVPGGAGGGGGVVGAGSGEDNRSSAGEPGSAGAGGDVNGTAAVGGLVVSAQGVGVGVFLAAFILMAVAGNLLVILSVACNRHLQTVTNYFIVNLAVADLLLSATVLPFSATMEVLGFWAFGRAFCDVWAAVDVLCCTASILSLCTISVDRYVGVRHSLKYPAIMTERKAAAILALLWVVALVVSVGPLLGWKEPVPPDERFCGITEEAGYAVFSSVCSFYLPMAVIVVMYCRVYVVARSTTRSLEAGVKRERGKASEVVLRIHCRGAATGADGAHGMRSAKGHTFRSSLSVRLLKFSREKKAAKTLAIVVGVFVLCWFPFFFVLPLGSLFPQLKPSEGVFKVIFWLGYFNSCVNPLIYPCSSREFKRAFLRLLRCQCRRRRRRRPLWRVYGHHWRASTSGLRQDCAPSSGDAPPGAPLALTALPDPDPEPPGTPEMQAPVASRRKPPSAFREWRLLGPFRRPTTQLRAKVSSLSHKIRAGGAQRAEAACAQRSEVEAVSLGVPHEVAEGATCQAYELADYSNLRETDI
T3 sequence (P35368 whole entry): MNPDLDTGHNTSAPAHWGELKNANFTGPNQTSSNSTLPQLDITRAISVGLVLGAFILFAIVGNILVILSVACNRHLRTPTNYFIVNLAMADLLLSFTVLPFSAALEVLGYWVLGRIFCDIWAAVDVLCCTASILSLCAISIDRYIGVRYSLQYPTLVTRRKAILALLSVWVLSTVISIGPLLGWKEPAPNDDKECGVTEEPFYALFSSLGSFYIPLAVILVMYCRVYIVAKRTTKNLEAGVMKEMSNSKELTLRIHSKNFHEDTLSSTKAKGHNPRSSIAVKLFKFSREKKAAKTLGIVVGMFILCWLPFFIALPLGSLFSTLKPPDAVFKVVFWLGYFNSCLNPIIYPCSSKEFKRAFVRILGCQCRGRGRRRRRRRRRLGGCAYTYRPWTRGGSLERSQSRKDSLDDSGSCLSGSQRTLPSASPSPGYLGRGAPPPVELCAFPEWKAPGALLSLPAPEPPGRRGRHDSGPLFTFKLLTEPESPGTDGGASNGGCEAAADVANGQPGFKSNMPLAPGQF
Kind of assay: Inhibitory activity against Adrenergic alpha-1 receptor. The assay is classed as protein assay.

Assay [4] has as its target T2, 5-hydroxytryptamine receptor 1B. As to the kind of experiment: Intrinsic activity for 5HT1B receptor in FLIPR assay. Format: functional.
Assay [5] concerns the target T4, 5-hydroxytryptamine receptor 1A (Homo sapiens) (UniProt P08908).
T4 sequence (whole entry): T1 sequence (P08908 whole entry)
As to the kind of experiment: Intrinsic activity for 5HT1A receptor in [35S]GTP-gamma-S assay. The assay is classed as functional. (GTPγS is a poorly hydrolysed GTP analogue; its binding reports G protein activation.)

Assay [6] deals with T4, 5-hydroxytryptamine receptor 1A (Homo sapiens). Kind of assay: Functional activity in [35S]GTP-gamma-S assay for 5HT1A receptor.
Assay [7] addresses T2, 5-hydroxytryptamine receptor 1B. Kind of assay: Functional activity in FLIPR assay for 5HT1B receptor.
Assay [8] concerns the target T5, 5-hydroxytryptamine receptor 1A (Rattus norvegicus, UniProt P19327).
T5 sequence (P19327 whole entry): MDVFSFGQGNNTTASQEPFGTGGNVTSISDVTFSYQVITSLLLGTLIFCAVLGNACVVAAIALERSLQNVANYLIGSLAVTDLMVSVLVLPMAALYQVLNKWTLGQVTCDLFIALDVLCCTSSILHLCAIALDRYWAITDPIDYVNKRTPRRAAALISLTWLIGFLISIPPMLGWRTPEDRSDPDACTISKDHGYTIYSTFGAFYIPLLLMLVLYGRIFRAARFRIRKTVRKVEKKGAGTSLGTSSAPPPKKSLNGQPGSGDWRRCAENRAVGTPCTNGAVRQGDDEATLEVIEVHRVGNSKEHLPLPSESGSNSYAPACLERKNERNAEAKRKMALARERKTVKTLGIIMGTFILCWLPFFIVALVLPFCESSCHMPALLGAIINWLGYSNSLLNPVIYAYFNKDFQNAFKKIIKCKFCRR
Kind of assay: Binding affinity for rat 5HT1A receptor.

In assay [9] the target is 5-hydroxytryptamine receptor 1B (Rattus norvegicus, UniProt P28564). As to the kind of experiment: Binding affinity for rat 5HT1B receptor.
For assay [10], the target named is T6, 5-hydroxytryptamine receptor 2C (Homo sapiens, UniProt P28335).
T6 sequence (P28335 whole entry): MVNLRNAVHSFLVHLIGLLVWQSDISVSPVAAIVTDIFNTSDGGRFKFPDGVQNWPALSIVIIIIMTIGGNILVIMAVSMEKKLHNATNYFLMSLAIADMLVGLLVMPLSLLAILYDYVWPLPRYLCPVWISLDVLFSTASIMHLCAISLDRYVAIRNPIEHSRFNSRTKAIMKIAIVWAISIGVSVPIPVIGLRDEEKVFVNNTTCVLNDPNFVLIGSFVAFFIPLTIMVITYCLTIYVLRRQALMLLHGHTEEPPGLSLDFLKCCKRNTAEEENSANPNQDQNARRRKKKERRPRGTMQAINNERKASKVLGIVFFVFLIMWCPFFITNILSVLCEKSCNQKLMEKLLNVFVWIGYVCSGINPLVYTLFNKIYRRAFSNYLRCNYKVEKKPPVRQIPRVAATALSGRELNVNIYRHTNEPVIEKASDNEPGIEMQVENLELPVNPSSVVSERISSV
Kind of assay: Inhibitory activity against 5HT2C receptor.

In assay [11] the target is 5-hydroxytryptamine receptor 5A (Homo sapiens, UniProt P47898). Kind of assay: Inhibitory activity against 5HT5A receptor.
Assay [12] has as its target 5-hydroxytryptamine receptor 7 (Homo sapiens, UniProt P34969). As to the kind of experiment: Inhibitory activity against 5HT7 receptor.
For assay [13], the target named is D(3) dopamine receptor (Homo sapiens, UniProt P35462). As to the kind of experiment: Inhibitory activity against dopamine D3 receptor.
Assay [14] has as its target Sodium-dependent serotonin transporter (Homo sapiens) (UniProt P31645). Kind of assay: Inhibitory activity against SERT upto 10 uM.
Assay [15] deals with Sodium-dependent dopamine transporter (Homo sapiens) (UniProt Q01959). Kind of assay: Inhibitory activity against DAT upto 10 uM.
The target in assay [16] is Sodium-dependent noradrenaline transporter (Homo sapiens) (UniProt P23975). Kind of assay: Inhibitory activity against NET upto 10 uM.

From ChEMBL document CHEMBL1141234, “Synthesis and SAR of highly potent dual 5-HT1A and 5-HT1B antagonists as potential antidepressant drugs” (Bioorg Med Chem Lett, 2005) come the findings set out here.

For orientation: Ki means a measure of affinity in units of concentration, obtained from inhibition or displacement. The Emax is the greatest response seen or fitted, relative to the assay's reference. As a reminder, the IC50 is the concentration that gives 50% inhibition.

Molecules are shown by their SMILES. Active and inactive are the calls of the source. The rule behind the calls is not given here.

T2 sequence (P28222 whole entry): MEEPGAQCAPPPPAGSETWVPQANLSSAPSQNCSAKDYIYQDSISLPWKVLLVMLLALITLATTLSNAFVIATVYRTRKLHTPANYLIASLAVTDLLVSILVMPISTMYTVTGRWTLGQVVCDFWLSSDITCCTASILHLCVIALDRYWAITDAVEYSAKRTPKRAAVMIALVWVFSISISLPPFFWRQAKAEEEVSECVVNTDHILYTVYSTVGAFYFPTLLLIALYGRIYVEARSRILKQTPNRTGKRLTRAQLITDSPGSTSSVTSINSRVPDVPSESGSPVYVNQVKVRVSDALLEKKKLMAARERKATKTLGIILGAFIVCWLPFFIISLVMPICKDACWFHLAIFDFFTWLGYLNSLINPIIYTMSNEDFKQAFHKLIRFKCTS
5-hydroxytryptamine receptor 5A, sequence (P47898 whole entry): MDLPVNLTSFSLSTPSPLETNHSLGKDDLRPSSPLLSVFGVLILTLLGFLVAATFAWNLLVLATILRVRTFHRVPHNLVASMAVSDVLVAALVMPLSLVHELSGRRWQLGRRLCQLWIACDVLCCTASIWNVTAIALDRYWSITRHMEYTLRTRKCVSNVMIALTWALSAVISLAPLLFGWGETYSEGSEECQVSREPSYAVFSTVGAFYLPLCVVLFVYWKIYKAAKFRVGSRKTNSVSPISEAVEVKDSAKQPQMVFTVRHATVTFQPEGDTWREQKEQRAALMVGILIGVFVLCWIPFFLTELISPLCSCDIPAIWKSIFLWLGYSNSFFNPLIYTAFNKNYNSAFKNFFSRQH
Sodium-dependent serotonin transporter (Homo sapiens), sequence (P31645 whole entry, looked up): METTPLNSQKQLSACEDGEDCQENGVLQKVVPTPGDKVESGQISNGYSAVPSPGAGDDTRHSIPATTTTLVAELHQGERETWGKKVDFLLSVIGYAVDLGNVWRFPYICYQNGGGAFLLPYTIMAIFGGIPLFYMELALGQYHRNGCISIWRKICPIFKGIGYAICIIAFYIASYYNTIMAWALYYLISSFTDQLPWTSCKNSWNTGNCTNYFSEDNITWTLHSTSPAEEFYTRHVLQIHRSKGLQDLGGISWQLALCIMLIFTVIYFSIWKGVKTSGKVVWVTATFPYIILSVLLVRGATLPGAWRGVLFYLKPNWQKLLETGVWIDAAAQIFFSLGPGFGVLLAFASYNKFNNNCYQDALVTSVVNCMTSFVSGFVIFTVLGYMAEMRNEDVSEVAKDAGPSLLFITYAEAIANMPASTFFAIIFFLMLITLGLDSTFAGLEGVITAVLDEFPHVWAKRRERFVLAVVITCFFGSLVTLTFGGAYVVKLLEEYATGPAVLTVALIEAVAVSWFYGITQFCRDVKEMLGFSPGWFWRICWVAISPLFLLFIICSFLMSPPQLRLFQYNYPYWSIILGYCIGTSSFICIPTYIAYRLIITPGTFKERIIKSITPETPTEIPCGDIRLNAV
Sodium-dependent noradrenaline transporter (Homo sapiens), sequence (P23975 whole entry): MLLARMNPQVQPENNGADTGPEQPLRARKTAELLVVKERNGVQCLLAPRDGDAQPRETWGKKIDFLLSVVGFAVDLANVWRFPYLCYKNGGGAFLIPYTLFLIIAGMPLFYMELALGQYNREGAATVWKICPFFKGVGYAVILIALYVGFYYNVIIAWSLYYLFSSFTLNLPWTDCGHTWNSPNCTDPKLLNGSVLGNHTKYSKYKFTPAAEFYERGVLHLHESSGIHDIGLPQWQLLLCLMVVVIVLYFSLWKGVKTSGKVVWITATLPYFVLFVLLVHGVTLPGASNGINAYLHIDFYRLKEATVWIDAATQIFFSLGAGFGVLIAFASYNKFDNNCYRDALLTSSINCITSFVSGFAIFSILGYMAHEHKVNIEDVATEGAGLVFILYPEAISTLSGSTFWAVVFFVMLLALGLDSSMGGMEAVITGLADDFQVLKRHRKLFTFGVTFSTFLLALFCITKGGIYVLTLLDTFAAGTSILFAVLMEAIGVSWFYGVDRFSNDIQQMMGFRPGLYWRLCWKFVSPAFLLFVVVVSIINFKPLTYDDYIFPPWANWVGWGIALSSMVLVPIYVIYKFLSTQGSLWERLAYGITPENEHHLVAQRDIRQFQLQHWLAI
Sodium-dependent dopamine transporter (Homo sapiens), sequence (Q01959 whole entry): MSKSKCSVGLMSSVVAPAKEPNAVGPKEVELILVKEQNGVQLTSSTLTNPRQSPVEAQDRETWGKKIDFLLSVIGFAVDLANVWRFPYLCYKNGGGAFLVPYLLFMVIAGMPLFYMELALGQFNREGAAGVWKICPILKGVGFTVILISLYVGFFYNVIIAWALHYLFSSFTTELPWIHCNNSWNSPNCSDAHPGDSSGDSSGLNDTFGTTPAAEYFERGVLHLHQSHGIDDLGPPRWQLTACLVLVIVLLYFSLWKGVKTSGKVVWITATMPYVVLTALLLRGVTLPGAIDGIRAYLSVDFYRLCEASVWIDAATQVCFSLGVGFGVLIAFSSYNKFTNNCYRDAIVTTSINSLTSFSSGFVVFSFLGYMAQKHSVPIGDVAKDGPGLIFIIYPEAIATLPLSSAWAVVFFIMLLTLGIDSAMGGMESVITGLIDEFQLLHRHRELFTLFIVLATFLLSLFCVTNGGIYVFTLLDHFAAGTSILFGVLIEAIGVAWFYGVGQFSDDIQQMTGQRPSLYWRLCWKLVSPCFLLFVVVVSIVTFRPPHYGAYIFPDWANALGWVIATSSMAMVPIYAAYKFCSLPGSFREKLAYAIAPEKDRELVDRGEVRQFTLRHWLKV
5-hydroxytryptamine receptor 7, sequence (P34969 whole entry): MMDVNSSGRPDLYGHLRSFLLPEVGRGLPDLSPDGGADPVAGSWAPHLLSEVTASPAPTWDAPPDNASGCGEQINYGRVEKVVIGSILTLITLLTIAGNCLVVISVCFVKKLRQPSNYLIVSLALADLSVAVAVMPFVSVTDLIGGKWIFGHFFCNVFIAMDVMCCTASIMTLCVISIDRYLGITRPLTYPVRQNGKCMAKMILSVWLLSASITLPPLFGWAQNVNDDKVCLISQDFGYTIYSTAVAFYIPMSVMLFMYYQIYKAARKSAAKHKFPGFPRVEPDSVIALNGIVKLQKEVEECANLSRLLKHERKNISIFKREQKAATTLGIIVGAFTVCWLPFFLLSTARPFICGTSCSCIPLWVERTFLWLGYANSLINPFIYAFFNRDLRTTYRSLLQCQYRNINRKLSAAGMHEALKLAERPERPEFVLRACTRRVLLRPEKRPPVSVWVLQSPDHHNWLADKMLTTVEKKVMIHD
D(3) dopamine receptor, sequence (P35462 whole entry): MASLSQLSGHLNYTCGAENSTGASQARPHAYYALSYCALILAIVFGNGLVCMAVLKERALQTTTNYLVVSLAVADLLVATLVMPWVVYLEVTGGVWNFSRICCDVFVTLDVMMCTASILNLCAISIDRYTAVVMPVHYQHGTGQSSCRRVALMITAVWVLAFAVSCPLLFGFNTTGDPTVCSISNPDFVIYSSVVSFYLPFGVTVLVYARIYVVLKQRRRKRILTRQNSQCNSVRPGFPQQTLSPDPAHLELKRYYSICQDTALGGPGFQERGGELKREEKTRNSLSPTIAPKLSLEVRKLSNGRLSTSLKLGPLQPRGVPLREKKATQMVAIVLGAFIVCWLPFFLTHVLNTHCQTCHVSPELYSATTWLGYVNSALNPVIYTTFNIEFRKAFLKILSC
5-hydroxytryptamine receptor 1B (Rattus norvegicus, UniProt P28564), sequence (P28564 whole entry): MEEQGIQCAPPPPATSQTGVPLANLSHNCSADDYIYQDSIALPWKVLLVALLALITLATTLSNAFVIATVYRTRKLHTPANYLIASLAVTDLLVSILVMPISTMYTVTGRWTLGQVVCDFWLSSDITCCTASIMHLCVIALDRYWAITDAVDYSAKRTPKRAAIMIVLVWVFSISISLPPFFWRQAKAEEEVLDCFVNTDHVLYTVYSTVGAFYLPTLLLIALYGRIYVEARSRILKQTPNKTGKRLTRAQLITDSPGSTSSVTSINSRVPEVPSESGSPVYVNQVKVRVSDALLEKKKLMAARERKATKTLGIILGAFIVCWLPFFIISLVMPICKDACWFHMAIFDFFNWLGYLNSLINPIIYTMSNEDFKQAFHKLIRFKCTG

Consider `Cc1ccccc1N1CCN(CCn2cnc3sc4c(c3c2=O)CCN(C)C4)CC1`, for which the Ki in [1] worked out at 2.9 nM; in [2], 3.5 nM; in assay [3], 1.7 nM. Moreover, the Emax was 20% in assay [4] and less than 10% in assay [5]. Also, the Activity result in assay [6] (filed as antagonist) was “Antagonist”; in [7] (filed as partial agonist), “Partial agonist”.

In the case of `COc1c(Cl)cc(Cl)cc1N1CCN(CCn2cnc3sc4c(c3c2=O)CCN(C)C4)CC1`, the inhibition constant (Ki) amounted to 25.8 nM in assay [1], 3.8 nM in assay [2] and 14.8 nM in [3]. The values for the Emax in assay [4] and in assay [5] were 20% and greater than 70%, respectively. The figures for the Activity result in assay [6] (filed as agonist) and in assay [7] (filed as partial agonist) were “Agonist” and “Partial agonist”, respectively.

With `CN1CCc2c(sc3ncn(CCN4CCN(c5ccc6ccccc6n5)CC4)c(=O)c23)C1`, the figures for the Ki in assay [1], in assay [2] and in assay [3] were 9.1 nM, 36.6 nM and 121.1 nM, respectively. Besides, the figures for the Emax in assay [4] and in [5] were 20% and 10%, respectively. In addition, the Activity result in [6] (filed as partial agonist) and in assay [7] (filed as partial agonist) was “Partial agonist” each time.

As for `COc1ccc2ccccc2c1N1CCN(CCn2cnc3sc4c(c3c2=O)CCN(C)C4)CC1`, the Ki in assay [1] is 11.8 nM; in [2], 5.4 nM; in [3], 4.5 nM. Besides, the maximal response (Emax) is 20% in assay [4] and 10% in [5]. Further, the Activity result in [6] (filed as partial agonist) and in assay [7] (filed as partial agonist) was “Partial agonist” throughout.

`CN1CCc2c(sc3ncn(CCN4CCN(c5nccc6ccccc56)CC4)c(=O)c23)C1`: the Ki in assay [1] was 0.7 nM; in assay [2], 0.5 nM; in assay [3], 41.1 nM. For the same molecule, the results for the Emax in assay [4] and in assay [5] were 20% and 10%, respectively. Also, the Activity result in assay [6] (filed as partial agonist) and in assay [7] (filed as partial agonist) was “Partial agonist” throughout.

Take `COc1ccc(Cl)cc1N1CCN(CCn2cnc3sc4c(c3c2=O)CCN(C)C4)CC1`: the inhibition constant (Ki) turned out to be 3 nM in [1], 70.3 nM in assay [2] and 0.1 nM in assay [3]. The Emax in assay [4] is less than 20%; in assay [5], less than 10%. In addition, the Activity entry in assay [6] (filed as antagonist) and in assay [7] (filed as antagonist) was “Antagonist” in each case.

Take `CN1CCc2c(sc3ncn(CCN4CCN(c5ccnc6ccccc56)CC4)c(=O)c23)C1`: the IC50 worked out at 1300 nM in [1] and 85 nM in [2]. The Ki in assay [1] came out at 6.5 nM; in assay [2], 9.7 nM; in [3], 118.1 nM; in assay [8], 23 nM; in assay [9], 117 nM; in [10], 5500 nM. Also, the Ki in [11] is greater than 1000 nM; in assay [12], 4480 nM; in assay [13] it was 1.3 nM. The values for the maximal effect (Emax) in assay [4] and in [5] were 9% and 6%, respectively. Moreover, the outcome in [14], in [15] and in assay [16] was inactive. Further, the Activity result in assay [6] (filed as antagonist) and in [7] (filed as antagonist) was “Antagonist” each time.

Take `COc1cc(Cl)ccc1N1CCN(CCn2cnc3sc4c(c3c2=O)CCN(C)C4)CC1`: the values for the Ki in assay [1], in [2] and in assay [3] were 18.8 nM, 3.3 nM and 0.5 nM, respectively. For the same molecule, the maximum response (Emax) in assay [4] is less than 20%; in assay [5], 10%. Further, the Activity result in assay [6] (filed as partial agonist) is “Partial agonist”; in assay [7] (filed as antagonist) it was “Antagonist”.

Regarding `COc1cc(Cl)c(Cl)cc1N1CCN(CCn2cnc3sc4c(c3c2=O)CCN(C)C4)CC1`, the figures for the inhibitory constant (Ki) in assay [1], in [2] and in assay [3] were 2.5 nM, 4.9 nM and 0.2 nM, respectively. Moreover, the Emax was less than 20% in assay [4] and 10% in assay [5]. Besides, the Activity entry is “Partial agonist” in assay [6] (filed as partial agonist) and “Antagonist” in assay [7] (filed as antagonist).

For the molecule `COc1c(Cl)cccc1N1CCN(CCn2cnc3sc4c(c3c2=O)CCN(C)C4)CC1`, the inhibition constant Ki came to 2.5 nM in assay [1], 0.5 nM in [2] and 7 nM in assay [3]. The maximum response (Emax) worked out at 20% in assay [4] and 10% in [5]. In addition, the Activity result in assay [6] (filed as partial agonist) and in assay [7] (filed as partial agonist) was “Partial agonist” in each case.

For `CN1CCc2c(sc3ncn(CCN4CCN(c5cccc6cccnc56)CC4)c(=O)c23)C1`, the Ki worked out at 0.2 nM in assay [1], 0.3 nM in assay [2] and 1.2 nM in assay [3]. Moreover, the Emax was found to be 20% in [4] and 10% in assay [5]. For the same molecule, the Activity result in assay [6] (filed as partial agonist) and in assay [7] (filed as partial agonist) was “Partial agonist” each time.
